For experiment [1], the system named is washed human platelets coincubated with A549, MDA-MB-231, or RPMI8226 cancer cells. The experiment in a line: Tumor cell-induced platelet aggregation (TCIPA). In kind it is cell-based. As to conditions: 2 μM; A549, MDA-MB-231, RPMI8226 cells, in the presence of plasma.
Experiment [2] relates to washed human platelets. The experiment in a line: U46619-induced platelet aggregation. Particulars: Platelet; washed human platelets, U46619 (1 μM). In kind it is cell-based. The method in brief:
(§1)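 Washed platelets from ACD-anticoagulated blood of healthy donors, stirred at 1200 rpm, 37 °C in a turbidimetric aggregometer. Aggregation triggered by U46619 or collagen, scored as maximal rise in light transmission.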

The next experiment deals with A549 cancer cells. The experiment in a line: Platelet-enhanced tumor cell proliferation. In kind it is cell-based, human. As to conditions: A549 plus platelets, 48 h, 0.5 to 2 μM. As for the experimental part:
In order to examine platelet-enhanced cancer cell growth, A549 cancer cells were coincubated with platelets for 48 h.
Figure 5 Inhibitory effects of JUG derivatives 18 and 22 on tumor cell-induced platelet secretion and platelet-enhanced tumor cell proliferation. (a) Washed human platelets were coincubated with A549 cancer cells under the same conditions as described in Figure 4. Secretion of PDGF and ATP were determined with the enzyme-linked immunosorbent assay (ELISA) and bioluminescent assay, respectively. (b) A549 cancer cells were coincubated with washed human platelets at 37 °C and 5% CO2 in a cell culture incubator for 48 h. After washing with PBS, the numbers of viable cancer cells were determined by trypan blue exclusion. Data are mean ± SEM of at least three independent experiments. In (a), *P < 0.05; **P < 0.01; ***P < 0.001 as compared with vehicle control (DMSO). In (b), *P < 0.05; **P < 0.01; ***P < 0.001 as compared with A549 cells plus platelets.
A549 cells (1 × 10^4 cells/well) were seeded in a 96-well plate and coincubated with wash human platelets (1 × 10^7 cells/well) containing with 0.375% plasma for 48 h at 37 °C and 5% CO2 in a cell culture incubator. After washing with phosphate buffered saline, the numbers of viable cancer cells were determined by trypan blue exclusion.

Another experiment has as its system lung cancer A549. The experiment in a line: Cell viability, resazurin assay, A549. Particulars: Homo sapiens, A549, 24 h, read-out: A549 IC50. A general note: Alamar Blue is a resazurin reagent that responds to reducing activity.
Experiment [3] has as its system human vascular endothelial EA.hy926 cells. The experiment in a line: Cell viability, resazurin assay, EA.hy926. As to conditions: EA.hy 926, 24 h, read-out: EAhy926 IC50.
Experimental: (§2) Cells were maintained in a humidified incubator at 37 °C in 5% CO2, and cell viability was determined with the resazurin assay (Cayman Chemical, USA) after the incubation with compounds for indicated concentrations and times or DMSO as control.[72]
For experiment [4], the target named is purified human recombinant PDI (rPDI) (Homo sapiens, UniProt P07237). The experiment in a line: Recombinant PDI reductase activity (Di-E-GSSG assay).
Experimental: In this assay, a nonfluorescent substrate, dieosin glutathione disulfide (Di-E-GSSG), was reduced into a fluorescent product eosin-glutathione (E-GSH) by platelet surface PDI in the presence of 5 μM dithiothreitol (DTT).
Experiment [5] concerns washed human platelets. The experiment in a line: Collagen-induced platelet aggregation. In kind it is cell-based. As to conditions: Platelet; washed human platelets, collagen (5 μg/mL). Put shortly:
as §1

Another experiment concerns glioma U87. The experiment in a line: Cell viability, resazurin assay, U87. As to conditions: Homo sapiens, 24 h, read-out: U87 IC50.

The record followed here is paper PMC10945480 (Journal of Medicinal Chemistry, 2024).

Sequence of purified human recombinant PDI (rPDI) (P07237 18-508): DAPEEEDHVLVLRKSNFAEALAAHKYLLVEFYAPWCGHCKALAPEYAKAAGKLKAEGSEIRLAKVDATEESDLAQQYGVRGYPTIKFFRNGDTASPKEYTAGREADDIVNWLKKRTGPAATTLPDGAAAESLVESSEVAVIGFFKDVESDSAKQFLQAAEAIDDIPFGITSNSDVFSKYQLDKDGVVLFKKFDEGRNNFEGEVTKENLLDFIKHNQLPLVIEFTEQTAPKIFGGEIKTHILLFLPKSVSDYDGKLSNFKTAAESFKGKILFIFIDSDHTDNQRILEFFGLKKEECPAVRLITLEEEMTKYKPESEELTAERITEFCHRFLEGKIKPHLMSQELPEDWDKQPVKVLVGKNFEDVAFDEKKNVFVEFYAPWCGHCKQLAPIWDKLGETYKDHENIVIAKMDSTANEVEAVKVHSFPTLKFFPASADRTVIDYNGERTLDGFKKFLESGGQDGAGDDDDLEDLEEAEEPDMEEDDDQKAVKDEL
Experimental for glioma U87: as §2
Experimental for lung cancer A549: as §2

With `CC(=O)OC1O[C@H](CSC2=CC(=O)c3cccc(O)c3C2=O)[C@@H](OC(C)=O)C(OC(C)=O)[C@H]1OC(C)=O` (stereo in doubt) [Compound 18, 2-(1,2,3,4-Tetra-O-acetyl-6-deoxy-6-thio-α-D-glucopyranose)-8-hydroxynaphthalene-1,4-dione], in experiment [1], the “prevention of TCIPA” value is on record as “significantly prevented TCIPA”. For the same compound, the concentration for half-maximal inhibition (IC50) (usually the point on the concentration scale where inhibition reaches its midpoint) in the experiment with washed human platelets [2] is 950 ± 100 nM; in the experiment on lung cancer A549, 36800 ± 1930 nM; in experiment [3] it was 7270 ± 80 nM; in experiment [4], 1870 ± 560 nM; with washed human platelets [5], 560 ± 170 nM; with glioma U87, > 20000 nM. In the experiment with A549 cancer cells, the “platelet-enhanced cancer cell growth” value is recorded as “blunted platelet-enhanced cancer cell growth”.
